{"source": "patent US11572373B2", "about": "“Maytansinoid-based drug delivery systems” (LADRX CORPORATION, priority 2017, dated 2023)", "key": {"[1]": {"assay": "Stability and release kinetics of maytansinoid-HSA conjugates in buffer solution at pH 4.0 and pH 7.4", "type": "physicochemical", "details": "maytansinoid-HSA conjugate, PBS pH 7.4, 37° C.", "method": "For preparing HSA conjugates of albumin-binding maytansinoids, HSA (200 μM: 361.8 μL, 1078 μM free Cys34; 100 μM: 180.9 μL, 1078 μM free Cys34) was diluted with PBS buffer (4 mM sodium phosphate, 150 mM NaCl, pH 7.4) (200 μM: 678.2 μL; 100 μM: 859.1 μL) and DMSO (200 μM: 130.0 μL; 100 μM: 195.0 μL) and incubated in a heating block at 37° C. for 30 minutes. The albumin-binding maytansinoid was added as a 2 mM stock solution in DMSO (200 μM: 130.0 μL; 100 μM: 65.0 μL) to the preincubated HSA sample to produce a 200 μM or 100 μM solution of maytansinoid-prodrug and 300 μM or 150 μM of free Cys34. The mixture having a pH of 7.4 was allowed to react for 10 min at 37° C. and was then analyzed hourly for 24 hours by RP-HPLC (Phenomenex Aeris WP XB-C18, 3.6 μm, 250×4.6 mm).\nFor studying the release kinetics at pH 4.0 the mixture was acidified with a mixture of 50 mM sodium acetate buffer pH 3.0 (200 μM: 119.3 μL; 100 μM: 125.2 μL) and 1 M HCl (200 μM: 12.7 μL; 100 μM: 6.8 μL) to reach pH 4.0. The mixture was subsequently analyzed hourly for 24 hours by RP-HPLC (Phenomenex Aeris WP XB-C18, 3.6 μm, 250×4.6 mm).\nThe following RP-HPLC conditions were used: Phenomenex Aeris WP XB-C18 3.6 μm, 250×4.6 mm; eluent A (100% 20 mM Tris buffer pH 8.0) and eluent B (90:10, MeCN: water) eluting with a gradient of eluent B (25% 0-0.5 min, 25-35% 0.5-2.5 min, 35-85% 2.5-16 min, 85-95% 16-17 min, 95% 17-20 min, 95-25% 20-25 min, 25% 25-30 min, flow rate 1.0 mL/min). Column oven temperature 37° C.; autosampler temperature 37° C.; 20 μL of injection volume.\nTo quantify the percentage of free drug released, standard curves of the free maytansinoids were prepared at different concentrations (200 μM, 100 μM, 50 μM, 25 μM and 12.5 μM). The area under the curve (AUC) was determined at 250 nm."}, "[2]": {"molecular_target": "T1, albumin (Homo sapiens, UniProt P02768)", "T1 construct": "tissue Zen-Bio; host or cells: pooled human whole blood (K2EDTA, 36 donors) and plasma prepared from it", "T1 sequence (P02768 25-609)": "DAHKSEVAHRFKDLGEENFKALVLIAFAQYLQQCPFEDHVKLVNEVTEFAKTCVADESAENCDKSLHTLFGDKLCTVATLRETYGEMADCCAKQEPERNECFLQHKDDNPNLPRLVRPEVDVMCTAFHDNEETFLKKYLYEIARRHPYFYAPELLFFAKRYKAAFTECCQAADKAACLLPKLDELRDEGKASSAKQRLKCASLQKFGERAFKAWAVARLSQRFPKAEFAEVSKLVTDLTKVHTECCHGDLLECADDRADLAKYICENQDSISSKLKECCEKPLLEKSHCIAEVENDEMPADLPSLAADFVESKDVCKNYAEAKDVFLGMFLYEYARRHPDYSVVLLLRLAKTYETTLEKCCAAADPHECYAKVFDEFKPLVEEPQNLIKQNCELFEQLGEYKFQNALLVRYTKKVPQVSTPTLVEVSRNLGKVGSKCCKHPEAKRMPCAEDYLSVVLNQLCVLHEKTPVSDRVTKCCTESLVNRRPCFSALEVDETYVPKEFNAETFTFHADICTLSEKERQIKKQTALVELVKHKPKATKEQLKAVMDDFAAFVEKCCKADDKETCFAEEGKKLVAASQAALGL", "assay": "in vitro", "type": "in vitro ADME", "details": "37° C., 12.0 μM, read-out: % bound (converted)", "method": "To study the binding kinetics of the albumin-binding maytansinoids in pooled human plasma and pooled human whole blood, the compounds were incubated together with pooled human plasma at 37° C. and samples were taken at specified time points. Remaining albumin-binding maytansinoids were quantitated by HPLC.\nTo study the binding kinetics in human whole blood, the blood (K2EDTA, 36 donors, Zen-Bio; 900 μL) was preincubated at 37° C. for 30 min in a heating block. To study the binding kinetics in pooled human plasma, the pooled whole blood was centrifuged (10 min, 1811 g), the supernatant plasma was collected and then preincubated at 37° C. for 30 min.\nThe albumin-binding maytansinoid was added to the preincubated whole blood/plasma sample as a 10-fold dilution in PBS of a 1.2 mM stock solution in 2.5% propylene glycol in 10 mM sodium phosphate buffer and 1.48 mM citrate (100 μL) to produce a 12.0 μM solution of the respective albumin-binding maytansinoid. Samples (190 μL) were taken after 15 s, 2 min, 4 min, 8 min and 15 min. The samples were directly added to 760 μL MeCN containing maytansine (5 μg/mL) as an internal standard and vortexed for 1 min. After centrifugation (1 min at 12,044 g) the supernatant (850 μL) was concentrated under high vacuum. The residue was taken up in DMSO/water (1:1 v/v; 95 μL) and then analyzed by RP-HPLC. Percentage of binding was determined by comparison of the area under the curve (AUC) at 220 nm of the albumin-binding maytansinoid relative to a control sample (100% value) in PBS buffer. All experiments were performed in triplicates.\nHPLC method: Phenomenex Kinetex Polar C18, 2.6 μm, 100 Å, 150×4.6 mm; eluent A (95:5 5 mM ammonium acetate: MeCN) and eluent B (5:95 5 mM ammonium acetate: MeCN) eluting with a gradient of eluent B (30% 0-0.5 min, 30-95% 0.5-9.0 min, 95% 11.0 min, 95-30% 11.0-14.5 min, 30% 15.0 min, flow rate=1.0 mL/min). Column oven temperature ambient temperature; autosampler temperature 4° C.; 50 μL of injection volume."}}, "note": "Read-outs that look alike come from different tables or passages of the source. Marks after values point to notes of the source that are not given here."}
{"molecule": "COc1cc2cc(c1Cl)N(C)C(=O)C[C@H](OC(=O)COc1cccc(/C(C)=N/NC(=O)c3ccc(NC(=O)CCCCCN4C(=O)C=CC4=O)cc3S(=O)(=O)O)c1)[C@]1(C)O[C@H]1[C@H](C)[C@@H]1C[C@@](O)(NC(=O)O1)[C@H](OC)/C=C/C=C(\\C)C2", "note": "[Compound 31]", "values": [{"measurement": "free maytansinoid after 24 h at pH 7.4", "setting": "[1]; measured at 100 μM", "result": 3.7, "unit": "%**"}, {"measurement": "free maytansinoid after 24 h at pH 7.4", "setting": "[1]; measured at 200 μM", "result": 4.0, "unit": "%*"}, {"measurement": "fraction unbound", "setting": "[2]; blood, pooled human whole blood, 15 s", "result": 0.008}, {"measurement": "fraction unbound", "setting": "[2]; blood, pooled human whole blood, 8 min", "result": 0.007}, {"measurement": "fraction unbound", "setting": "[2]; plasma, pooled human plasma, 15 s", "result": 0.08}, {"measurement": "fraction unbound", "setting": "[2]; plasma, pooled human plasma, 8 min", "result": 0.014}]}
